Reference: US20230391786A1, “cGAS INHIBITORS” (Eli Lilly and Company, priority 2022, published 2023)
Where a name gives a salt, the structure may show the parent alone. Read-outs that look alike come from different tables or passages of the source.

Columns and labels:
[1] = tested on: cGAS activity in THP1 cells (IFNb as marker); test: Cellular assay to measure cGAS activity (IFNb production in PMA-differentiated THP1 cells stimulated by RDG-Adenovirus-GFP); format: cell-based, human; conditions: PMA differentiated, RDG-Adenovirus-GFP 1000 MOI, IFNb AlphaLISA, overnight incubation, read-out: IC50 (μM), Cellular assay for Compounds 95-348
In short: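 The readout is secreted IFNb measured by AlphaLISA after overnight compound exposure. THP1 cells, differentiated with PMA for 24 h and rested overnight, were infected with RDG-Adenovirus-GFP (1000 MOI, 4 h) before compounds were added; IC50 came from a 4-parameter logistic fit of inhibition against log concentration.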

recombinant human cGAS = recombinant human cGAS (Homo sapiens (Human), UniProt Q8N884); test: In vitro inhibition assay of cGAS activity (cGAMP production, RapidFire mass spectrometry); format: biochemical; conditions: 10 nM recombinant human cGAS, 60 nM 75-bp dsDNA, ATP, GTP, room temperature 3 hours, read-out: IC50 (μM), In vitro inhibition assay for Compounds 95-348
In short: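 Product cGAMP was quantified by RapidFire MS against a difluoro-cGAMP internal standard after a formic acid quench. The reaction contained 10 nM recombinant full-length human cGAS, 75-bp dsDNA (60 nM), ATP and GTP (50 μM) and ran for 3 h at room temperature. IC50 values came from 4-parameter nonlinear regression.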

[2] = Homo sapiens, THP-1, THP1 cells

recombinant human cGAS, sequence (Q8N884 whole entry): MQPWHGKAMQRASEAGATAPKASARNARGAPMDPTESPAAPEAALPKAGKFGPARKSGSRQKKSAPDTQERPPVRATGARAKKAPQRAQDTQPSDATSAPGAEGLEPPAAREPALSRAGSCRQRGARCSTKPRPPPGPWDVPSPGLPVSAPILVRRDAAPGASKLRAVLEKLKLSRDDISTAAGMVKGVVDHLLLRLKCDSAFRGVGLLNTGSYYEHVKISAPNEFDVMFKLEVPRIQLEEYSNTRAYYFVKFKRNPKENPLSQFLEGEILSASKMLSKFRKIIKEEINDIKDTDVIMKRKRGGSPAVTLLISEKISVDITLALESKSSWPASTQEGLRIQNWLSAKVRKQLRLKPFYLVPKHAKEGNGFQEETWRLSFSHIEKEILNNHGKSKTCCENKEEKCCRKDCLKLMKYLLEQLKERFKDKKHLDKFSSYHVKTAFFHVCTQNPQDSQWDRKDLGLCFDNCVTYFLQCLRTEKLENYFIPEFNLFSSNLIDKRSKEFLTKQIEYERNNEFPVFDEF

Structure (SMILES)	IC50 [1, 2] [µM]	IC50 (recombinant human cGAS) [µM]	IC50 ([1]; THP1 cells) [µM]
Clc1ccc2c(-c3cn[nH]c3)c(-c3nnc(C4CC4)o3)[nH]c2c1Cl [Example 160, 2-Cyclopropyl-5-(6,7-dichloro-3-(1H-pyrazol-4-yl)-1H-indol-2-yl)-1,3,4-oxadiazole]	0.536	0.0787	
CN1CCOC[C@@H]1CC(=O)N1CCn2c(c(-c3cn[nH]c3)c3c(OCC#N)cc(Cl)c(Cl)c32)C1 [Example 114, (S)-2-((6,7-Dichloro-2-(2-(4-methylmorpholin-3-yl)acetyl)-10-(1H-pyrazol-4-yl)-1,2,3,4-tetrahydropyrazino[1,2-a]indol-9-yl)oxy)acetonitrile]	1.53	0.0244	
O=C(CO)NC1Cc2c(-c3cn[nH]c3)c3ccc(Cl)c(Cl)c3n2C1 (single isomer, unassigned) [Example 248, N-(5,6-Dichloro-9-(1H-pyrazol-4-yl)-2,3-dihydro-1H-pyrrolo[1,2-a]indol-2-yl)-2-hydroxyacetamide]		0.0396	> 10
NCCCCCC(=O)NCC(=O)NC1CCc2c(-c3cn[nH]c3)c3ccc(Cl)c(Cl)c3n2C1 (stereo not drawn) [Example 196, 6-Amino-N-[2-[[3,4-dichloro-10-(1H-pyrazol-4-yl)-6,7,8,9-tetrahydropyrido[1,2-a]indol-7-yl]amino]-2-oxo-ethyl]hexanamide formic acid salt]	> 10	0.064	
COc1cc2c(-c3cn[nH]c3)cn(-c3ccc(CO)nn3)c2cc1Cl [Example 342, (6-(6-chloro-5-methoxy-3-(1H-pyrazol-4-yl)-1H-indol-1-yl)pyridazin-3-yl)methanol]	0.964	0.0261	
OCCCNc1cc(Cl)c(F)c2c1c(-c1cn[nH]c1)cn2-c1cn(CCO)nn1 [Example 173, 3-[[6-Chloro-7-fluoro-1-[1-(2-hydroxyethyl)triazol-4-yl]-3-(1H-pyrazol-4-yl)indol-4-yl]amino]propan-1-ol]	0.466	0.0145	
O=C(CN1C(=O)CSC1=O)N1CCn2c(c(-c3cn[nH]c3)c3ccc(Cl)c(Cl)c32)C1 [Example 307, 3-(2-(6,7-Dichloro-10-(1H-pyrazol-4-yl)-3,4-dihydropyrazino[1,2-a]indol-2(1H)-yl)-2-oxoethyl)thiazolidine-2,4-dione]	> 10	0.0398	
CNC(=O)CC(=O)NC1CCc2c(-c3cn[nH]c3)c3ccc(Cl)c(Cl)c3n2C1 (stereo not drawn) [Example 141, N′-[3,4-Dichloro-10-(1H-pyrazol-4-yl)-6,7,8,9-tetrahydropyrido[1,2-a]indol-7-yl]-N-methyl-propanediamide]	3.3	0.0275	
OCC(O)Cn1cc(-n2cc(-c3cn[nH]c3)c3ccc(Cl)c(Cl)c32)nn1 (stereo not drawn) [Example 140, 3-[4-[6,7-Dichloro-3-(1H-pyrazol-4-yl)indol-1-yl]triazol-1-yl]propane-1,2-diol]	7.11	0.0481	
Clc1ccc2c(-c3cn[nH]c3)c3n(c2c1Cl)CC(Nc1ncccn1)CC3 (stereo not drawn) [Example 191, 3,4-Dichloro-10-(1H-pyrazol-4-yl)-N-pyrimidin-2-yl-6,7,8,9-tetrahydropyrido[1,2-a]indol-7-amine]	8.53	0.0763	
CN1CCC(CC(=O)N2CCn3c(c(-c4cn[nH]c4)c4ccc(Cl)c(Cl)c43)C2)C1=O (stereo not drawn) [Example 300, 3-(2-(6,7-Dichloro-10-(1H-pyrazol-4-yl)-3,4-dihydropyrazino[1,2-a]indol-2(1H)-yl)-2-oxoethyl)-1-methylpyrrolidin-2-one]	> 10	0.0288	
CN1CCOC[C@H]1CC(=O)N1CCn2c(c(-c3cn[nH]c3)c3c(OCC#N)cc(Cl)c(Cl)c32)C1 [Example 115, (R)-2-((6,7-Dichloro-2-(2-(4-methylmorpholin-3-yl)acetyl)-10-(1H-pyrazol-4-yl)-1,2,3,4-tetrahydropyrazino[1,2-a]indol-9-yl)oxy)acetonitrile]	1.12	0.0288	
CC(=O)NCC(=O)NC1CCc2c(-c3cn[nH]c3)c3ccc(Cl)c(Cl)c3n2C1 (stereo not drawn) [Example 107, 2-Acetamido-N-[3,4-dichloro-10-(1H-pyrazol-4-yl)-6,7,8,9-tetrahydropyrido[1,2-a]indol-7-yl]acetamide]	5.56	0.0196	
OCCC1CCn2c1c(-c1cn[nH]c1)c1ccc(Cl)c(Cl)c12 (single isomer, unassigned; isomer 2) [Example 243, 2-(5,6-Dichloro-9-(1H-pyrazol-4-yl)-2,3-dihydro-1H-pyrrolo[1,2-a]indol-1-yl)ethan-1-ol isomer 2]		0.0472	9.35
O[C@@H]1C[C@H](Oc2cc(Cl)c(Cl)c3[nH]cc(-c4cn[nH]c4)c23)[C@@H](O)C1 (racemic) [Example 220, 4-[[6,7-Dichloro-3-(1H-pyrazol-4-yl)-1H-indol-4-yl]oxy]cyclopentane-1,3-diol (racemic mixture)]	0.556	0.0301	
COCCS(=O)(=O)NC1CCc2c(-c3cn[nH]c3)c3ccc(Cl)c(Cl)c3n2C1 (stereo not drawn) [Example 117, N-[3,4-Dichloro-10-(1H-pyrazol-4-yl)-6,7,8,9-tetrahydropyrido[1,2-a]indol-7-yl]-2-methoxy-ethanesulfonamide]	2.49	0.0153	
CC(=O)Nc1cc(Cl)cc2c1c(-c1cn[nH]c1)cn2-c1cn(CCO)nn1 [Example 201, N-[6-Chloro-1-[1-(2-hydroxyethyl)triazol-4-yl]-3-(1H-pyrazol-4-yl)indol-4-yl]acetamide]	4.23	0.0777	

Continued, values first:

IC50 [1, 2] [µM]	IC50 (recombinant human cGAS) [µM]	IC50 ([1]; THP1 cells) [µM]	Structure (SMILES)
3.55	0.023		O=C(Nc1cc(Cl)c(Cl)c2c1c(-c1cn[nH]c1)c1n2CCN(C(=O)CN2CCOC2=O)C1)C(F)F [Example 274, N-[6,7-Dichloro-2-[2-(2-oxooxazolidin-3-yl)acetyl]-10-(1H-pyrazol-4-yl)-3,4-dihydro-1H-pyrazino[1,2-a]indol-9-yl]-2,2-difluoro-acetamide]
> 10	0.019		Sc1nnc(-c2[nH]c3c(Cl)c(Cl)ccc3c2-c2cn[nH]c2)[nH]1 [Example 159, 5-[6,7-Dichloro-3-(1H-pyrazol-4-yl)-1H-indol-2-yl]-4H-1,2,4-triazole-3-thiol]
0.938	0.03		CC(=O)N1CCn2c(c(-c3cn[nH]c3)c3c(NCC#N)cc(Cl)c(Cl)c32)C1 [Example 254, 2-[[2-Acetyl-6,7-dichloro-10-(1H-pyrazol-4-yl)-3,4-dihydro-1H-pyrazino[1,2-a]indol-9-yl]amino]acetonitrile]
0.376	0.0052		OCCCNc1cc(Cl)c(Cl)c2[nH]nc(-c3cn[nH]c3)c12 [Example 250, 3-[[6,7-Dichloro-3-(1H-pyrazol-4-yl)-1H-indazol-4-yl]amino]propan-1-ol]
2.45	0.0541		FC(F)CCNc1cc(Cl)c(Cl)c2[nH]cc(-c3cn[nH]c3)c12 [Example 188, 6,7-Dichloro-N-(3,3-difluoropropyl)-3-(1H-pyrazol-4-yl)-1H-indol-4-amine]
0.412	0.0202		O=C(Nc1cc(Cl)c(Cl)c2c1c(-c1cn[nH]c1)c1n2CCN(C(=O)CO)C1)C(F)F [Example 272, N-[6,7-Dichloro-2-(2-hydroxyacetyl)-10-(1H-pyrazol-4-yl)-3,4-dihydro-1H-pyrazino[1,2-a]indol-9-yl]-2,2-difluoro-acetamide]
0.351	0.0158		O[C@H]1CC[C@H](Nc2cc(Cl)c(Cl)c3[nH]cc(-c4cn[nH]c4)c23)C1 (racemic) [Example 209, trans-3-[[6,7-Dichloro-3-(1H-pyrazol-4-yl)-1H-indol-4-yl]amino]cyclopentanol (racemic mixture)]
0.464	0.0405		Clc1ccc2c(-c3cn[nH]c3)c(-c3nnco3)[nH]c2c1Cl [Example 156, 2-[6,7-Dichloro-3-(1H-pyrazol-4-yl)-1H-indol-2-yl]-1,3,4-oxadiazole]
0.317	0.0202		COCc1[nH]c2c(Cl)c(Cl)cc(NC(=O)C(F)F)c2c1-c1cn[nH]c1 [Example 132, N-(6,7-Dichloro-2-(methoxymethyl)-3-(1H-pyrazol-4-yl)-1H-indol-4-yl)-2,2-difluoroacetamide]
0.565	0.00614		CCOc1cc(Cl)c(Cl)c2c1c(-c1cn[nH]c1)c1n2CC[C@@H]1NC(=O)CO [Example 343, (S)—N-(5,6-Dichloro-8-ethoxy-9-(1H-pyrazol-4-yl)-2,3-dihydro-1H-pyrrolo[1,2-a]indol-1-yl)-2-hydroxyacetamide]
> 10	0.0804		O=C(CO)Nc1cc(Cl)c(Cl)c2c1c(-c1cn[nH]c1)c1n2CCN(C(=O)CO)C1 [Example 145, N-(6,7-Dichloro-2-(2-hydroxyacetyl)-10-(1H-pyrazol-4-yl)-1,2,3,4-tetrahydropyrazino[1,2-a]indol-9-yl)-2-hydroxyacetamide]
1.28	0.0421		Clc1cc(OC2COC2)c2c(-c3cn[nH]c3)c[nH]c2c1Cl [Example 206, 6,7-Dichloro-4-(oxetan-3-yloxy)-3-(1H-pyrazol-4-yl)-1H-indole]
> 10	0.0405		O=C1CC(CC(=O)N2CCn3c(c(-c4cn[nH]c4)c4c(NC(=O)C(F)F)cc(Cl)c(Cl)c43)C2)CCN1 (stereo not drawn) [Example 276, N-[6,7-Dichloro-2-[2-(2-oxo-4-piperidyl)acetyl]-10-(1H-pyrazol-4-yl)-3,4-dihydro-1H-pyrazino[1,2-a]indol-9-yl]-2,2-difluoro-acetamide]
